Data from article PMC4890880 (ACS infectious diseases, 2016).
Where two headings read alike, the source gives them in different places.

Assays:
HepG2-A16-CD81EGFP cells = conditions: for IC50: read-out: Tox_IC50, HepG2 cytotoxicity
[1] = test system: Plasmodium berghei (Pb-Luc) exoerythrocytic-stage parasites; conditions: for normalized signal at concentration 0.000508053 / normalized signal at concentration 0.00152416 / normalized signal at concentration 0.00457247 / normalized signal at concentration 0.0137174 / normalized signal at concentration 0.0411523 / normalized signal at concentration 0.123457 / normalized signal at concentration 0.37037 / normalized signal at concentration 1.11111 / normalized signal at concentration 3.33333 / normalized signal at concentration 10: fraction of control; for IC50: read-out: PbLuc_IC50
[2] = sheet 2nd round, maximal inhibition in dose response
[3] = second series of columns (replicate)
[4] = first series of dose-response columns
[5] = sheet 2nd round, Broad compounds, dose response
[6] = second series of dose-response columns

## C[C@@H]1CN([C@@H](C)CO)C(=O)c2ccccc2-c2ccccc2CO[C@@H]1CN(C)S(=O)(=O)Cc1ccccc1 [BRD-K06421369-001-01-0]
HepG2-A16-CD81EGFP cells; sheet 2nd round
  IC50: > 10 µM
HepG2-A16-CD81EGFP cells; [2]
  Tox_max_inhibition (%): 8.54%
[1]; first series of columns
  normalized signal at concentration 0.000508053: 1.055
  normalized signal at concentration 0.00152416: 1.041
  normalized signal at concentration 0.00457247: 0.8367
  normalized signal at concentration 0.0137174: 0.8756
  normalized signal at concentration 0.0411523: 0.8835
  normalized signal at concentration 0.123457: 1.014
  normalized signal at concentration 0.37037: 0.8794
  normalized signal at concentration 1.11111: 0.8244
  normalized signal at concentration 3.33333: 1.118
  normalized signal at concentration 10: 0.9941
[1]; sheet 2nd round, Pb-Luc exoerythrocytic stage, 10-point dose response, top concentration 10
  IC50: > 10 µM
[1]; [3]
  normalized signal at concentration 0.000508053: 0.9052
  normalized signal at concentration 0.00152416: 1.004
  normalized signal at concentration 0.00457247: 1.069
  normalized signal at concentration 0.0137174: 0.9457
  normalized signal at concentration 0.0411523: 0.8932
  normalized signal at concentration 0.123457: 1.033
  normalized signal at concentration 0.37037: 1.094
  normalized signal at concentration 1.11111: 1.104
  normalized signal at concentration 3.33333: 1.032
  normalized signal at concentration 10: 0.8304
[1]; [2]
  PbLuc_max_inhibition (%): 18%

## O=C(C1CCOCC1)N1C[C@@H]2[C@H](c3ccccc31)[C@H](CO)N2C(=O)Cc1ccccn1 [BRD-K09790760-001-01-0]
HepG2-A16-CD81EGFP cells; sheet "2nd round"
  IC50: > 10 µM
  Tox_max_inhibition (%): 5%
[1]; concentration 0.000508053, first series
  normalised signal at concentration 0.000508053 (first series): 0.7162
[1]; concentration 0.000508053, second series
  normalised signal at concentration 0.000508053 (second series): 0.9348
[1]; concentration 0.00152416, first series
  normalised signal at concentration 0.00152416 (first series): 0.8009
[1]; concentration 0.00152416, second series
  normalised signal at concentration 0.00152416 (second series): 0.7622
[1]; concentration 0.00457247, first series
  normalised signal at concentration 0.00457247 (first series): 0.9824
[1]; concentration 0.00457247, second series
  normalised signal at concentration 0.00457247 (second series): 0.8311
[1]; concentration 0.0137174, first series
  normalised signal at concentration 0.0137174 (first series): 0.8823
[1]; concentration 0.0137174, second series
  normalised signal at concentration 0.0137174 (second series): 0.8539
[1]; concentration 0.0411523, first series
  normalised signal at concentration 0.0411523 (first series): 1.052
[1]; concentration 0.0411523, second series
  normalised signal at concentration 0.0411523 (second series): 0.8968
[1]; concentration 0.123457, first series
  normalised signal at concentration 0.123457 (first series): 0.7822
[1]; concentration 0.123457, second series
  normalised signal at concentration 0.123457 (second series): 0.8152
[1]; concentration 0.37037, first series
  normalised signal at concentration 0.37037 (first series): 0.9579
[1]; concentration 0.37037, second series
  normalised signal at concentration 0.37037 (second series): 1.035
[1]; concentration 1.11111, first series
  normalised signal at concentration 1.11111 (first series): 0.8507
[1]; concentration 1.11111, second series
  normalised signal at concentration 1.11111 (second series): 0.8044
[1]; concentration 3.33333, first series
  normalised signal at concentration 3.33333 (first series): 0.9897
[1]; concentration 3.33333, second series
  normalised signal at concentration 3.33333 (second series): 1.088
[1]; concentration 10, first series of dose columns
  normalised signal at concentration 10 (first series): 0.9272
[1]; concentration 10, second series of dose columns
  normalised signal at concentration 10 (second series): 0.9177
[1]; sheet "2nd round", Broad compounds, dose response top concentration 10
  IC50: > 10 µM
[1]; sheet "2nd round"
  PbLuc_max_inhibition (%): 28%

## C[C@@H]1CN([C@H](C)CO)C(=O)c2cc(N(C)C)ccc2O[C@@H](C)CCCCO[C@@H]1CN(C)S(=O)(=O)c1ccc(F)cc1 [BRD-K12341671-001-01-5]
HepG2-A16-CD81EGFP cells; sheet 2nd round
  IC50: > 10 µM
HepG2-A16-CD81EGFP cells; [2]
  Tox_max_inhibition (%): 5%
[1]; [4]
  normalized signal at concentration 10: 0.50
[1]; first series
  normalized signal at concentration 0.000508053: 0.77
  normalized signal at concentration 0.00152416: 1.03
  normalized signal at concentration 0.00457247: 1.06
  normalized signal at concentration 0.0137174: 0.89
  normalized signal at concentration 0.0411523: 0.99
  normalized signal at concentration 0.123457: 1.04
  normalized signal at concentration 0.37037: 0.93
  normalized signal at concentration 1.11111: 0.88
  normalized signal at concentration 3.33333: 0.70
[1]; [5]
  IC50: > 10 µM
[1]; [6]
  normalized signal at concentration 10: 0.50
[1]; second series
  normalized signal at concentration 0.000508053: 0.88
  normalized signal at concentration 0.00152416: 1.15
  normalized signal at concentration 0.00457247: 0.85
  normalized signal at concentration 0.0137174: 0.84
  normalized signal at concentration 0.0411523: 0.98
  normalized signal at concentration 0.123457: 0.98
  normalized signal at concentration 0.37037: 0.92
  normalized signal at concentration 1.11111: 0.85
  normalized signal at concentration 3.33333: 0.80
[1]; [2]
  PbLuc_max_inhibition (%): 50%

## C[C@H]1CN([C@@H](C)CO)C(=O)c2cc(C#Cc3ccccc3)cnc2O[C@H]1CN(C)C(=O)c1ccccc1 [BRD-K12503654-001-01-1]
HepG2-A16-CD81EGFP cells; sheet 2nd round
  IC50: > 10 µM
HepG2-A16-CD81EGFP cells; [2]
  Tox_max_inhibition (%): 5.33%
[1]; [4]
  normalized signal at concentration 10: 0.56
[1]; first series
  normalized signal at concentration 0.000508053: 1.00
  normalized signal at concentration 0.00152416: 1.04
  normalized signal at concentration 0.00457247: 1.07
  normalized signal at concentration 0.0137174: 1.02
  normalized signal at concentration 0.0411523: 1.04
  normalized signal at concentration 0.123457: 0.97
  normalized signal at concentration 0.37037: 0.92
  normalized signal at concentration 1.11111: 1.13
  normalized signal at concentration 3.33333: 0.83
[1]; [5]
  IC50: > 10 µM
[1]; [6]
  normalized signal at concentration 10: 0.51
[1]; second series
  normalized signal at concentration 0.000508053: 1.07
  normalized signal at concentration 0.00152416: 0.85
  normalized signal at concentration 0.00457247: 1.01
  normalized signal at concentration 0.0137174: 0.97
  normalized signal at concentration 0.0411523: 1.21
  normalized signal at concentration 0.123457: 1.03
  normalized signal at concentration 0.37037: 1.11
  normalized signal at concentration 1.11111: 0.90
  normalized signal at concentration 3.33333: 0.91
[1]; [2]
  PbLuc_max_inhibition (%): 49%

## CC(C)[C@H]1COCn2nncc2CCCC(=O)N1 [BRD-K14350179-001-01-1]
HepG2-A16-CD81EGFP cells; sheet 2nd round
  IC50: > 10 µM
HepG2-A16-CD81EGFP cells; [2]
  Tox_max_inhibition (%): 5.35%
[1]; [4]
  normalized signal at concentration 10: 0.98
[1]; first series
  normalized signal at concentration 0.000508053: 0.82
  normalized signal at concentration 0.00152416: 0.73
  normalized signal at concentration 0.00457247: 0.94
  normalized signal at concentration 0.0137174: 0.81
  normalized signal at concentration 0.0411523: 0.80
  normalized signal at concentration 0.123457: 0.97
  normalized signal at concentration 0.37037: 0.84
  normalized signal at concentration 1.11111: 0.77
  normalized signal at concentration 3.33333: 0.76
[1]; [5]
  IC50: > 10 µM
[1]; [6]
  normalized signal at concentration 10: 1.05
[1]; second series
  normalized signal at concentration 0.000508053: 0.94
  normalized signal at concentration 0.00152416: 1.04
  normalized signal at concentration 0.00457247: 1.06
  normalized signal at concentration 0.0137174: 0.87
  normalized signal at concentration 0.0411523: 1.07
  normalized signal at concentration 0.123457: 1.10
  normalized signal at concentration 0.37037: 1.01
  normalized signal at concentration 1.11111: 0.86
  normalized signal at concentration 3.33333: 0.89
[1]; [2]
  PbLuc_max_inhibition (%): 27%
